The structures appear in SMILES notation.

A short description of this data set: gradient 5% acetonitrile 3 min, to 50% in 2 min, to 85% in 15 min, held 3 min, 100 µL/min. As to conditions: column: Zorbax Extend-C18 2.1 x 50 mm; eluents: water / acetonitrile, 0.1% formic acid. The procedure, abridged:
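Standards, all pure, were combined into mixtures of ~100 molecules and run at 100 μL/min on a Zorbax Extend-C18 column (2.1 × 50 mm, 1.8 μm) with water and acetonitrile, each containing 0.1% formic acid. A coupled quadrupole time-of-flight mass spectrometer operated in positive and negative ionization mode. Retention time values come from computationally picked adduct peaks, each inspected manually.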
For the compound `O=C(NC1CCCCCCC1)C1CCCN(C(=O)c2cc(-c3cccnc3)n[nH]2)C1` (stereo not given), the RP-LC retention time came to 631 s.

Consider `Cc1ccc(C)c(CS(=O)(=O)N2CCC(CN3CCCCCC3)CC2)c1`, for which the RP-LC retention time is 700 s. Compound `CN1C2CCC1CC(NC(=O)c1nn(C)c3ccccc13)C2` (stereo not given) registered an RP-LC retention time of 655 s. `CN1CCC(OC2CCN(C(=O)c3ccc(F)cc3Cl)CC2)CC1` had an RP-LC retention time of 583 s. `Cc1cccc(CNC(=O)C2CCCN(S(=O)(=O)c3cc(-c4noc(C)n4)cs3)C2)c1` (stereo not given) gave an RP-LC retention time of 1010 s. As for `Brc1ccccc1Cc1nc(-c2ccc3nncn3c2)no1`, the figure is 724 s. As for `COc1ccccc1NC(=O)N1CCN(CCn2c(C(F)(F)F)nc3cccnc32)CC1`, the figure is 630 s; as for `Cc1cc(Cl)ccc1NC(=O)c1ncn2c1C(=O)N(C1CC1)C(C)(C(=O)NC1CCCC1)C2` (stereo not given), 879 s. Take `CCn1ccc2sc(C)c(C(=O)NCC3CCCCC3)c2c1=O`: the RP-LC retention time is 884 s.

As for `CN1CCN(C(CNC(=O)c2ccc3c(c2)OCO3)c2ccc3c(c2)OCO3)CC1` (stereo not given), the RP-LC retention time was found to be 614 s. In turn, `COC(=O)Nc1nc(CC(=O)NCc2ccccc2Cl)cs1` registered an RP-LC retention time of 667 s.

On to `CCOC(=O)c1ccccc1NC(=O)Cn1nc2c(Sc3ccccc3)nccn2c1=O`, for which the RP-LC retention time came to 1060 s. As to `CCCC(=O)N1CCc2c([nH]c3ccccc23)C12C(=O)Nc1ccc(Br)cc12` (stereo not given), the RP-LC retention time came to 924 s. In turn, `CC1CCN(Cc2csc(N3CCN(C(=O)c4ccc(C#N)cc4)CC3)n2)CC1` gave an RP-LC retention time of 638 s. As for `CCOc1ccccc1N1CCN(C(=O)CN2CCN(Cc3ccc(F)cc3)C2=O)CC1`, the figure is 833 s. As for `CCCCn1cc(S(=O)(=O)NCc2ccccc2C(F)(F)F)c2cccnc21`, the figure is 1040 s; as for `Cc1ccc(S(=O)(=O)N2CCCC(CCC(=O)NCc3ccccc3)C2)cc1` (stereo not given), 960 s; as for `CCOC(=O)c1c(C)[nH]c(CCC(=O)NCCc2c[nH]c3ccccc23)c1C`, 715 s. In the case of `CCCN1C(=O)COc2ccc(-c3noc(-c4cc(OC)cc(OC)c4)n3)cc21`, the RP-LC retention time turned out to be 1240 s. In turn, `CC(C)(C)NC(=O)N1CCCN(S(C)(=O)=O)CC1` gave an RP-LC retention time of 614 s. As for `Cc1ccc(NS(=O)(=O)c2cc3c(s2)CCN(C(=O)C2CCC2)C3)c(C)c1`, the figure is 943 s; as for `Cn1c(=O)n(C)c2cc(CNc3ccc(N4CCOCC4)cc3)ccc21`, 600 s. The compound `Cc1cc(=O)n(CC(=O)Nc2ccccc2F)c(-c2ccccc2)n1` gave an RP-LC retention time of 1000 s. `COCCN1C(=O)c2cccn2CC1CNS(=O)(=O)c1c(C)noc1C` (stereo not given) registered an RP-LC retention time of 689 s. Compound `Cc1cccc(C)c1NC(=O)CN1C(=O)NC2(CCCCC2)C1=O` yielded an RP-LC retention time of 745 s.

The compound `Cc1ccc(CN2C(=O)COc3ccc(C(=O)NC(C)(C)C)cc32)cc1` displayed an RP-LC retention time of 910 s. As for `CNC(=O)[C@@H]1CN(S(=O)(=O)c2cnc[nH]2)C[C@H]1c1n[nH]c(C)n1`, the figure is 530 s. In turn, `COc1ccc(C2CC(=O)N(c3ccc4c(c3)OCCO4)C(=O)C2)cc1OC` came in with an RP-LC retention time of 789 s. With `Cc1cccc(S(=O)(=O)Nc2ccc(-c3cn4ccc(C)nc4n3)cc2)c1`, the RP-LC retention time turned out to be 659 s. `N#Cc1cccc(NC(=O)C2CCN(S(=O)(=O)c3cc(-c4noc(C5CCC5)n4)cs3)CC2)c1` yielded an RP-LC retention time of 1070 s.

On to `Cc1ccc(S(=O)(=O)N2CCCC(CCC(=O)NCc3ccccn3)C2)cc1` (stereo not given), for which the RP-LC retention time stood at 656 s.

The compound `CC12CC(NC(=O)N1c1cccc(C(=O)Nc3ccc4c(c3)OCCO4)c1)c1ccccc1O2` (stereo not given) showed an RP-LC retention time of 830 s. On to `CCCn1cc(CCNS(=O)(=O)c2ccc(C)cc2C)c2cccnc21`, for which the RP-LC retention time amounted to 924 s. As for `CCCN1C(=O)Cc2ccccc2C1C(=O)N1CCOCC1` (stereo not given), the figure is 650 s; as for `CN1CCN(S(=O)(=O)c2cccc(-c3nc(-c4ccccc4)no3)c2)CC1`, 694 s; as for `COc1ccc2c(c1)CCc1sc(NC(=O)c3ccc(F)cc3)nc1-2`, 1140 s. For `O=C(CCc1nnc2c3cc(-c4ccc(F)cc4)nn3ccn12)NCCc1cccnc1`, the RP-LC retention time came out at 601 s.

Consider `O=C(O)/C=C/c1ccc(Cn2ccnc2)cc1`, for which the RP-LC retention time is 612 s. The compound `COc1ccccc1N1CCN(c2cc(C(=O)O)c3cc(NS(C)(=O)=O)ccc3n2)CC1` displayed an RP-LC retention time of 619 s. As to `O=C(NCCCN1CCCC1=O)c1ccc2nc(CCc3ccccc3)oc2c1`, the RP-LC retention time stood at 754 s. Consider `CC1CCN(C(=O)C2=NN(C)c3ccccc3S2(=O)=O)CC1`, for which the RP-LC retention time worked out at 799 s. The compound `COc1ccc2[nH]cc(CCNC(=O)CC3CCN(S(=O)(=O)c4ccc(Cl)s4)CC3)c2c1` yielded an RP-LC retention time of 905 s. `Cc1sc(-c2cc(C(F)(F)F)[nH]n2)cc1S(=O)(=O)NC1CCCCC1` had an RP-LC retention time of 1030 s.

In turn, `Cc1ccc2oc(-c3nnc(C(=O)NCCN4CCC(C)CC4)o3)c(C)c2c1` came in with an RP-LC retention time of 674 s. As for `COc1ccc(Cn2cc(S(=O)(=O)N3CCCCCC3)ccc2=O)cc1`, the figure is 818 s.

Compound `Brc1ccc(Nc2nc(-c3ccc4c(c3)OCO4)cs2)nc1` registered an RP-LC retention time of 1150 s.

In turn, `CCOc1cc([C@@H](CS(C)(=O)=O)N2C(=O)c3cccc(NC(C)=O)c3C2=O)ccc1OC` gave an RP-LC retention time of 859 s. As for `CC1CCN(CCCNS(=O)(=O)c2ccccc2-c2nc(-c3ccccc3)no2)CC1`, the RP-LC retention time worked out at 733 s. In the case of `COc1ccc(C(=O)NCCc2cn3cccc(C)c3n2)c(OC)c1`, the RP-LC retention time came out at 551 s.

Compound `O=C(O)c1cccc2c1CCN2S(=O)(=O)c1ccccc1F` yielded an RP-LC retention time of 812 s. As for `CN1CCN(CCNC(=O)C2CCc3sc(C(=O)N4CCOCC4)cc3C2)CC1` (stereo not given), the figure is 543 s.

`COc1ccc(NC(=O)N2c3ccccc3NC3=C(C(=O)CCC3)C2c2ccco2)c(OC)c1` (stereo not given) displayed an RP-LC retention time of 816 s. Compound `O=C(Nc1ccc(F)c(F)c1)c1cc2n(n1)CCCC2` showed an RP-LC retention time of 887 s. As to `CCN1C(=O)c2cccnc2Sc2cc(C(=O)NC3CCCCC3)ccc21`, the RP-LC retention time turned out to be 826 s.

The compound `CCn1nccc1C(=O)N1C[C@@H]2C[C@H](NS(=O)(=O)c3ccccc3)[C@H]1C2` returned an RP-LC retention time of 677 s. `O=C(c1ccccc1)N1CCc2cc(-c3ccno3)ccc21` came in with an RP-LC retention time of 886 s. With `CC(C)n1c(=O)c(NCc2ccccc2C(F)(F)F)nc2ccncc21`, the RP-LC retention time amounted to 714 s.

`CCn1ccc(C(=O)N2CCN(c3ccc(=O)n(-c4ccc(Cl)cc4)n3)CC2)n1` displayed an RP-LC retention time of 753 s.

The compound `Cc1cc(NC(=O)C(=O)NCCN2CCN(c3ccccc3F)CC2)no1` registered an RP-LC retention time of 580 s. Take `COc1cccc(NC(=O)C2(C)Oc3cccnc3N(C)C2=O)c1` (stereo not given): the RP-LC retention time was determined as 808 s.

`Cn1cnc2c(C(=O)NCc3ccco3)nn(-c3ccc(Cl)cc3)c2c1=O` registered an RP-LC retention time of 834 s. `Cc1nc(-c2csc(S(=O)(=O)N3CCCC(C(=O)Nc4ccc(F)cc4C)C3)c2)no1` (stereo not given) displayed an RP-LC retention time of 892 s. Take `Cc1c(F)cccc1NC(=O)N1C[C@@H](F)C[C@H]1C(=O)N1CCOCC1`: the RP-LC retention time is 653 s. As for `CC(NC(=O)C1CCN(c2cncnc2N2CCCC2)CC1)c1ccccc1` (stereo not given), the figure is 660 s; as for `CCc1ccc(C(=O)Nc2cc3c(cc2S(=O)(=O)C(C)C)n(C)c(=O)n3C)cc1`, 747 s.

In turn, `O=C(NCCCO)c1ccc(CSc2nc3ccccc3[nH]2)cc1` had an RP-LC retention time of 562 s. Regarding `CCS(=O)(=O)Nc1cc(-c2nnc(C)o2)sc1C`, the RP-LC retention time was 738 s. In the case of `COc1ccc(-c2nc3cc(C)ccn3c2NC(=O)CC(C)(C)C)cc1`, the RP-LC retention time came out at 681 s.

Compound `CCn1c(=O)sc2cc(S(=O)(=O)N3CCC(C(=O)Nc4ccc5c(c4)OCO5)CC3)ccc21` returned an RP-LC retention time of 863 s. Consider `CCCn1nc2n(c1=O)CCN(Cc1ccc(C)c(C)c1)C2`, for which the RP-LC retention time was 749 s. For the compound `Cc1ccccc1CNC(=O)C1CCCN(c2ccc(=O)n(-c3cccc(Cl)c3)n2)C1` (stereo not given), the RP-LC retention time was determined as 922 s.

Regarding `Cc1ccc2c(c1)C(C)(C)C(=O)N2CC(=O)N1CCCCC1`, the RP-LC retention time worked out at 860 s.

In turn, `O=C(NCc1ccco1)c1cccc2c1CCN2C(=O)c1ccc(F)cc1` yielded an RP-LC retention time of 836 s. Regarding `CCCS(=O)(=O)N1CCC2(CC1)CC(N1CCN(c3ccccc3)CC1)CCO2` (stereo not given), the RP-LC retention time was determined as 538 s. `CC(C)N1CCN(c2ccc3nnc(C4CCC4)n3n2)CC1` showed an RP-LC retention time of 548 s.

On to `O=C(Nc1nnc(C2CC(=O)N(c3ccc(Cl)cc3)C2)o1)c1cccc(F)c1` (stereo not given), for which the RP-LC retention time was 786 s.

For the compound `Cc1ccc(OCC(=O)Nc2nnc(C3CC(=O)N(c4ccccc4)C3)o2)cc1` (stereo not given), the RP-LC retention time is 765 s. The compound `COc1ccc(N2CCN(CC(O)c3cccc(OC)c3)CC2)cc1` (stereo not given) showed an RP-LC retention time of 657 s.

`Cc1ccc(NC(=O)C2CCCN(c3nccc(C)n3)C2)c(Br)c1` (stereo not given) showed an RP-LC retention time of 889 s. For `COCCn1nnnc1C1CC2(CCOCC2)C(=O)N1Cc1ccc(SC)cc1` (stereo not given), the RP-LC retention time came out at 777 s.

The values are drawn from the METLIN SMRT retention time set (Domingo-Almenara et al. 2019).
